Experimental data published in ChEMBL document CHEMBL1201862, “PubChem BioAssay data set” (2004).
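Method: 48-hour compound exposure of cells in 96-well plates, five concentrations, linear interpolation of endpoints. At the GI50, growth is halved.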 Calls of active or inactive are those of the source. Rule as the data show it: active = GI50 up to about 1.1 µM and inactive = higher.

How the values were obtained:
Experiment in all cases: NCI-60 cell line screen, 48 h
PC-3 = system: PC-3
LOX IMVI = system: LOX IMVI
Hs-578T = system: Hs-578T
MDA-MB-435 = system: MDA-MB-435
SNB-19 = system: SNB-19
RXF 393 = system: RXF 393
BT-549 = system: BT-549
NCI-H226 = system: NCI-H226
EKVX = system: EKVX
SF-539 = system: SF-539
SF-268 = system: SF-268
HCT-15 = system: HCT-15
DU-145 = system: DU-145
Malme-3M = system: Malme-3M
SK-OV-3 = system: SK-OV-3
NCI-H460 = system: NCI-H460
HL-60 = system: HL-60
KM12 = system: KM12
HOP-62 = system: HOP-62
NCI-H522 = system: NCI-H522

Measured: GI50

O=S(=O)(c1ccccc1)c1cccc2c1NCCC2
32.4 µM: HCT-15
inactive: PC-3 31.1 µM | LOX IMVI 35.6 µM | Hs-578T 52.1 µM | MDA-MB-435 35.2 µM | SNB-19 39.2 µM | RXF 393 27.7 µM | BT-549 20.8 µM | NCI-H226 49.9 µM | EKVX 58.3 µM | SF-539 45 µM | SF-268 72.1 µM | DU-145 59.4 µM | Malme-3M 29.1 µM | SK-OV-3 > 10 µM | NCI-H460 43.4 µM | HL-60 21.8 µM | KM12 44.2 µM | HOP-62 > 100 µM

CNc1ccc(OC)cc1S(=O)(=O)c1ccccc1[N+](=O)[O-]
inactive: PC-3 52.7 µM | NCI-H522 92.3 µM | LOX IMVI > 100 µM | Hs-578T > 100 µM | MDA-MB-435 > 100 µM | SNB-19 > 100 µM | RXF 393 > 100 µM | BT-549 75.2 µM | NCI-H226 > 100 µM | EKVX 47.1 µM | SF-539 > 100 µM | SF-268 > 100 µM | DU-145 > 100 µM | Malme-3M 82.8 µM | SK-OV-3 > 100 µM | NCI-H460 > 100 µM | HL-60 > 100 µM | HOP-62 > 100 µM
> 100 µM: HCT-15

CSc1ccsc1-c1sc(-c2cc(SC)c(-c3sc(-c4cc(SC)c(-c5sccc5SC)s4)cc3SC)s2)cc1SC
inactive: PC-3 76.4 µM | NCI-H522 18.3 µM | LOX IMVI > 100 µM | Hs-578T > 100 µM | MDA-MB-435 20.9 µM | SNB-19 > 100 µM | RXF 393 > 100 µM | BT-549 64.3 µM | EKVX > 100 µM | SF-539 > 100 µM | SF-268 > 100 µM | DU-145 96.8 µM | Malme-3M 29.4 µM | SK-OV-3 > 100 µM | NCI-H460 > 100 µM | KM12 65.2 µM | HOP-62 > 100 µM
> 100 µM: HCT-15
active: HL-60 0.356 µM

CC1(C)CC(=O)c2c(-c3ccc(Cl)cc3)c(C#N)c(=S)n(C3OC(CO)C(O)C(O)C3O)c2C1 (configuration not stated)
inactive: PC-3 17.2 µM | NCI-H522 35 µM | LOX IMVI 20.1 µM | Hs-578T 25.4 µM | MDA-MB-435 27.9 µM | SNB-19 40.3 µM | RXF 393 36.2 µM | BT-549 45.9 µM | NCI-H226 20.9 µM | SF-539 25.4 µM | SF-268 48.3 µM | DU-145 49.8 µM | Malme-3M 31 µM | NCI-H460 30.3 µM | HL-60 20.2 µM | KM12 37.3 µM | HOP-62 69.5 µM
21.4 µM: HCT-15

COC12C=CC(C=C1C#N)CC2.COC12C=CC(CC1)CC2=O (configuration not stated)
inactive: PC-3 > 100 µM | NCI-H522 > 100 µM | Hs-578T > 100 µM | MDA-MB-435 > 100 µM | SNB-19 > 100 µM | RXF 393 > 100 µM | BT-549 > 100 µM | NCI-H226 > 100 µM | EKVX > 100 µM | SF-539 > 100 µM | SF-268 > 100 µM | DU-145 > 100 µM | Malme-3M > 100 µM | SK-OV-3 > 100 µM | NCI-H460 > 100 µM | HL-60 > 100 µM | KM12 > 100 µM | HOP-62 > 100 µM
> 100 µM: HCT-15

Cc1c(C(C)C)cc(OCCO)cc1C(C)C
35.6 µM: HCT-15
inactive: PC-3 30.8 µM | NCI-H522 25.9 µM | LOX IMVI 24.9 µM | Hs-578T 27.8 µM | MDA-MB-435 31.5 µM | SNB-19 66.2 µM | RXF 393 16.6 µM | BT-549 37.2 µM | NCI-H226 34.8 µM | EKVX 31 µM | SF-539 55.5 µM | SF-268 35.5 µM | DU-145 73.6 µM | SK-OV-3 > 100 µM | NCI-H460 36.4 µM | HL-60 23.1 µM | KM12 43.2 µM | HOP-62 75.7 µM

Cc1ccc(S(=O)(=O)OC2C3OC(C)(C)OC3OC2C(c2cc(O)c3c(c2O)C(=O)c2ccccc2C3=O)c2cc(O)c3c(c2O)C(=O)c2ccccc2C3=O)cc1 (configuration not stated)
> 10 µM: HCT-15
inactive: PC-3 > 10 µM | NCI-H522 > 10 µM | LOX IMVI > 10 µM | Hs-578T > 10 µM | MDA-MB-435 > 10 µM | SNB-19 > 10 µM | BT-549 > 10 µM | NCI-H226 > 10 µM | EKVX > 10 µM | SF-539 > 10 µM | SF-268 > 10 µM | DU-145 > 10 µM | Malme-3M > 10 µM | SK-OV-3 > 10 µM | NCI-H460 > 10 µM | HL-60 > 10 µM | KM12 > 10 µM | HOP-62 > 10 µM
